These results are taken from article PMC2978498 (Angewandte Chemie (International ed. in English), 2009).

No end group written: not given here.

Assay [1] deals with T1, Dvl PDZ domain (Dvl1 PDZ) (Mus musculus, UniProt P51141).
T1 sequence (P51141 248-337): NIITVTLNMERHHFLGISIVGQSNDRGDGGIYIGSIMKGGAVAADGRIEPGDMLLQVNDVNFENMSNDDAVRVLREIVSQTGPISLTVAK
In words: binding test shown only in supplement.

The target in assay [2] is T1, Dvl PDZ domain (Dvl1 PDZ). Nature of the assay: fluorescence polarization competition with Rox-DprC peptide. The assay is classed as binding. Background: In fluorescence polarisation assays a small probe gives low polarisation when free and higher when bound to something large.
For assay [3], the target named is T2, Dapper C-terminal peptide (Rox-DprC) (Xenopus laevis).
T2 chain: Rox-SGSLKLMTTV
In words: fluorescence polarization.

Regarding `CSc1ccc(/C=C2/C(C)=C(CC(=O)O)c3cc(F)ccc32)cc1` [sulindac sulfide], the “binding test shown only in supplement” value in assay [1] was “binds to the PDZ domain with much weaker affinity (Figure S6)”. The Ki is a measure of affinity in units of concentration, obtained from inhibition or displacement. Take `CC1=C(CC(=O)O)c2cc(F)ccc2/C1=C\c1ccc(S(C)(=O)=O)cc1` [sulindac sulfone]: the affinity in assay [2] corresponds to a Ki of 8 ± 0.2 µM. Consider `CC1=C(CC(=O)O)c2cc(F)ccc2/C1=C\c1ccc([S@@+](C)[O-])cc1` [sulindac], for which affinity in assay [2] was put at a Ki of 10.7 ± 1.2 µM.

B1: Dishevelled PDZ domain (Dvl1) PDZ (protein)
chain: NIITVTLNMERHHFLGISIVGQSNDRGDGGIYIGSIMKGGAVAADGRIEPGDMLLQVNDVNFENMSNDDAVRVLREIVS
Broadly, the Kd is the free concentration of one partner at which half of the binding sites on the other are occupied at equilibrium, for simple one-to-one binding. The low end stands for higher affinity, the high end for lower affinity. B1 returned a Kd in assay [3] of roughly 8 µM.
